System: library of barcoded yeast strains expressing toxic aggregation prone proteins, non-aggregation toxic proteins or benign control proteins
Assay: Barcoded mixed pool growth competition of a yeast library under inducing conditions (galactose) with or without a small molecule, with barcodes quantified by next-generation sequencing
Type: cell-based
Conditions: for rescue of growth of strains expressing toxic aggregation prone proteins (barcode representation relative to no drug condition): difference >3 standard deviations vs no drug highlighted
Method: Several experiments were conducted in which all members of the library were mixed at equal amounts and the library was grown under non-inducing conditions (glucose) or in the presence of galactose (inducing condition) with or without a small molecule of interest. After overnight outgrowth, genomic DNA was extracted from each of the experimental conditions and barcodes were quantified.
A library of barcoded yeast and their associated genes of interest were subjected to growth under inducing conditions in the presence or absence of small molecules. In FIG. 5A, Lovastatin at 2 ug/ml was added to the outgrowth media. In FIG. 5B, Celestrol at 1 ug/ml was added to the outgrowth media. Growth in the presence of drug was normalized to the without drug condition and plotted relative to the no drug condition. […] “416” and “426” refers to the plasmid background used to express each of the genes tested.
For growth competition experiments, yeast strains each with a unique DNA barcode along with containing a plasmid encoding a control or toxic protein of interest were first grown overnight to saturation in SC-URA+glucose. The various barcoded lines were then mixed in defined ratios and passaged at a 1:1000 dilution into fresh SC-URA+glucose or SC-URA+galactose media. For experiments involving small molecules, yeast were diluted into SC-URA+galactose media containing a given small molecule of interest and allowed to grow for 36 hours before genomic DNA was extracted from the population of cells.
Yeast lysis was performed as previously described. See Lõoke, M., Kristjuhan, K. & Kristjuhan, A. Extraction of genomic DNA from yeasts for PCR-based applications. BioTechniques 50, 325-328 (2011). Briefly, 300-900 ul of overnight culture was spun down and resuspended in 300 ul of 200 mM LiAc, 1% SDS solution. Cells were then vortexed several times and incubated at 70° C. for 10-15 minutes. 900 ul of >95% ethanol was then added to the samples and they were inverted several times along with vortexing to mix the solution well. The samples were then spun at 15,000 g for 3 minutes and the supernatant was discarded. Pellets were washed 1× with 70% ethanol, spun at 15,000 g for 3 minutes and the supernatant was again removed. The pellet was then allowed to air dry for 5-10 minutes before adding in 100 ul of 10 mM Tris pH 8.5 and pipetting up and down to break up the pellet. Samples were then placed in a heating block set to 37° C. for 10 minutes, spun again at 15,000 g for 3 minutes and then the supernatant was collected and used in downstream DNA analysis.
Genomic DNA was extracted and barcoded using one of four internally barcoded forward primers, […] NNNN CACAG […]; […] NNNN GTGTT […]; […] NNNN TCTTG […]; […] NNNN AGCTC […]; in combination with the reverse primer, […]aacgccgccatccagtttaaacgag. Following PCR, the amplicons were purified and normalized using SequalPrep Normalization Plate (96) kit (Thermo Fisher). A second round of PCR was next performed using the Illumina Truseq adapters in order to allow individual samples to be identified during subsequent data analysis. The reads were aligned to a list of the 96 possible barcodes (see Ho, C. H. et al. A molecular barcoded yeast ORF library enables mode-of-action analysis of bioactive compounds. Nat. Biotechnol. 27, 369-377 (2009) using BWA. The depth of coverage for each barcode was calculated for each of the samples using a custom script and normalized to the total number of reads per sample.

| Compound | rescue of growth of strains expressing toxic aggregation prone proteins (barcode representation relative to no drug condition) (Celestrol at 1 ug/ml in outgrowth media, FIG. 5B) | change in growth of control strains expressing benign proteins (eYFP, mCherry) (Celestrol at 1 ug/ml, FIG. 5B) | rescue of strains expressing proteins that cause toxicity in yeast outside of protein aggregation (Celestrol at 1 ug/ml, FIG. 5B) | rescue of growth of strains expressing toxic aggregation prone proteins (barcode representation relative to no drug condition) (Lovastatin at 2 ug/ml in outgrowth media, FIG. 5A) | change in growth of control strains expressing benign proteins (eYFP, mCherry) (Lovastatin at 2 ug/ml, FIG. 5A) | rescue of strains expressing proteins that cause toxicity in yeast outside of protein aggregation (Lovastatin at 2 ug/ml, FIG. 5A) |
| --- | --- | --- | --- | --- | --- | --- |
| CC1=C(O)C(=O)C=C2C1=CC=C1[C@@]2(C)CC[C@@]2(C)[C@@H]3C[C@](C)(C(=O)O)CC[C@]3(C)CC[C@]12C [Celestrol] | showed an ability to rescue the growth of some of the toxic aggregation prone proteins | nor did control strains expressing benign proteins such as eYFP and mCherry exhibit a significant change in their growth | none of the proteins that cause toxicity in yeast through alternative methods outside of protein aggregation showed significant rescue | – | – | – |
| CC[C@H](C)C(=O)O[C@H]1C[C@@H](C)C=C2C=C[C@H](C)[C@H](CC[C@@H]3C[C@@H](O)CC(=O)O3)[C@H]21 [Lovastatin] | – | – | – | showed an ability to rescue the growth of some of the toxic aggregation prone proteins | nor did control strains expressing benign proteins such as eYFP and mCherry exhibit a significant change in their growth | none of the proteins that cause toxicity in yeast through alternative methods outside of protein aggregation showed significant rescue |

From patent US12157885B2, “Methods of screening using barcoded libraries” (President and Fellows of Harvard College, priority 2016, dated 2024)
